In the OPERA property sets (Mansouri et al. 2018):

Conditions: not given

In order of falling melting point:
1. O=C1c2c(Br)c(Br)c(Br)c(Br)c2C(=O)N1CCN1C(=O)c2c(Br)c(Br)c(Br)c(Br)c2C1=O  445 °C
2. CC1(C)[C@@H](O)CC[C@]2(C)[C@H]3C(=O)C=C4[C@@H]5C[C@@](C)(C(=O)O)CC[C@]5(C)CC[C@@]4(C)[C@]3(C)CC[C@@H]12  296 °C
3. CC1(C)CC[C@]2(C(=O)O)CC[C@]3(C)C(=CC[C@@H]4[C@@]5(C)CC[C@H](O)[C@@](C)(C=O)[C@@H]5CC[C@]43C)[C@@H]2C1  275 °C
4. O=c1sc2ccccc2c(O)c1C1CC(c2ccc(-c3ccc(Br)cc3)cc2)Cc2ccccc21 (centres undefined)  234 °C
5. Cc1cc(=O)c2ccccc2[nH]1  234 °C
6. CCCN1C[C@H](CSC)C[C@@H]2c3cccc4[nH]cc(c34)C[C@H]21  208 °C
7. CCS(=O)(=O)c1nc2ccccn2c1S(=O)(=O)NC(=O)Nc1nc(OC)cc(OC)n1  201 °C
8. Oc1ccc2ccc(O)cc2c1  193 °C
9. NNC(N)=S  183 °C
10. O=c1c(O)c(-c2ccccc2)oc2ccccc12  172 °C
11. Cc1ncc(CO)c(C=O)c1O  165 °C
12. O=C1CCc2ccccc2N1  164 °C
13. Fc1ccc(NC(=S)Nc2cc(Cl)cc(Cl)c2)cc1  164 °C
14. Cc1cc(C(C)(C)c2ccc(O)c(C)c2)ccc1O  139 °C
15. c1ccc(-c2nnc(-c3ccccc3)o2)cc1  139 °C
16. Nc1ccc2c(c1)Cc1ccccc1-2  129 °C
17. O=C1CCC(=O)N1  126 °C
18. CC(=O)[C@H]1CC[C@H]2[C@@H]3CC[C@@H]4CC(=O)CC[C@]4(C)[C@H]3CC[C@]12C  123 °C
19. O=C(O)CCC(=O)C(=O)O  116 °C
20. Cc1ccc2cc(C)ccc2c1  112 °C
21. c1cc(-c2ccncc2)ccn1  111 °C
22. O=C(Oc1ccccc1)n1c(C(F)(F)F)nc2cc(Cl)c(Cl)cc21  103 °C
23. O=C(O)CCOc1ccccc1  97.5 °C
24. O=C1C=CC(=O)N1  94 °C
25. CC(=O)Oc1c(C(C)(C)C)cc([N+](=O)[O-])c(C)c1[N+](=O)[O-]  86.5 °C
26. CON(C)C(=O)Nc1ccc(Cl)cc1  81.5 °C
27. C/C(=C\c1ccccc1)C(=O)O  80 °C
28. COc1cc(Cl)c(Cl)cc1Cl  77.5 °C
29. CC(C)OC(=O)C(O)(c1ccc(Br)cc1)c1ccc(Br)cc1  77 °C
30. O=[N+]([O-])c1ccc(O)cc1C(F)(F)F  76 °C
31. CCC(=O)C(CC(C)N1CCOCC1)(c1ccccc1)c1ccccc1 (centres undefined)  75.5 °C
32. O=C(CC(=O)c1ccccc1)c1ccccc1  70.5 °C
33. CCCC(C)(CO)CO  62.5 °C
34. C1CCCCCCCCCCCCCC1  61.3 °C
35. N#C/C=C(\Cl)C#N  60.5 °C
36. CCCCCCCC(=O)Oc1c(I)cc(C#N)cc1I  59.5 °C
37. Cc1ccc([N+](=O)[O-])c(O)c1  53 °C
38. CC(C)C(C(=O)OC(C#N)c1cccc(Oc2ccccc2)c1)c1ccc(Cl)cc1 (centres undefined)  52.2 °C
39. CC[C@@H](C(=O)O)c1ccccc1  47.5 °C
40. CCCCCCOc1ccc(N)cc1  44 °C
41. CCCCCCCCCCCCOC(=O)CCSCCC(=O)OCCCCCCCCCCCC  41 °C
42. Cc1ccc(C(=O)N(C)C)cc1  41 °C
43. CCCCCCC(O)CCCCC (centres undefined)  30 °C
44. ClC1OCCOC1Cl (centres undefined)  30 °C
45. CCCc1cccc(O)c1  26 °C
46. CCOc1ccc(Cl)cc1  21 °C
47. Cc1cccc([N+](=O)[O-])c1  15.5 °C
48. CC1(C)CCCC(O)C1 (centres undefined)  11.5 °C
49. Cc1cccc(C)c1N  11.2 °C
50. OCCNc1ccccc1  11 °C
51. CCN(CC)C(=O)SCc1ccccc1Cl  9 °C
52. CCCCCCCC(=O)CCC  4.5 °C
53. CC(=O)OO  -0.2 °C
54. Nc1ccc(F)cc1F  -7.5 °C
55. CCOC(=O)c1ccccc1  -34 °C
56. CCCCCCCCC(=O)OCCCC  -38 °C
57. SCCS  -41.2 °C
58. CCCCCCCCC  -53.5 °C
59. CC1CCCCS1 (centres undefined)  -58 °C
60. CBr  -93.7 °C
61. CCCCC1CCCC1  -108 °C

In order of rising boiling point:
1. CBr  3.5 °C
2. CCCC1CC1  69.1 °C
3. O=C(O)C(F)(F)C(F)(F)F  96.5 °C
4. Brc1ccoc1  103 °C
5. CCC(=O)C(C)=O  108 °C
6. CC(=O)OO  110 °C
7. C=C(C)CC(C)O (centres undefined)  129 °C
8. SCCS  146 °C
9. CCCCCCCCC  151 °C
10. CC1CCCCS1 (centres undefined)  153 °C
11. C=CCOCC1CO1 (centres undefined)  154 °C
12. CCCCC1CCCC1  157 °C
13. CC#CCCCCCC  162 °C
14. Nc1ccc(F)cc1F  170 °C
15. N#C/C=C(\Cl)C#N  172 °C
16. CC1(C)CCCC(O)C1 (centres undefined)  185 °C
17. CCOC(=O)CC(C)O (centres undefined)  185 °C
18. CCC(O)C(C)O (centres undefined)  188 °C
19. CC1CCC(O)CC1C (centres undefined)  189 °C
20. CCC(C)(C)c1ccccc1  192 °C
21. CCOC(=O)CC1CCCCC1  211 °C
22. CCOC(=O)c1ccccc1  212 °C
23. CCOc1ccc(Cl)cc1  213 °C
24. Cc1cccc(C)c1N  215 °C
25. NCC1CCCC(CN)C1 (centres undefined)  220 °C
26. CCCCCCC(O)CCCCC (centres undefined)  225 °C
27. CCCc1cccc(O)c1  228 °C
28. Cc1cccc([N+](=O)[O-])c1  232 °C
29. CCCC(C)(CO)CO  234 °C
30. O=C(O)CCOc1ccccc1  240 °C
31. COc1cc(Cl)c(Cl)cc1Cl  254 °C
32. Cc1ccc2cc(C)ccc2c1  262 °C
33. CC[C@@H](C(=O)O)c1ccccc1  271 °C
34. OCCNc1ccccc1  280 °C
35. O=C1CCC(=O)N1  288 °C
36. c1cc(-c2ccncc2)ccn1  305 °C

In order of falling log10 vapour pressure (mmHg):
1. CBr  3.21
2. CC(=O)OO  1.16
3. SCCS  0.749
4. CCCCCCCCC  0.648
5. CCCCC1CCCC1  0.602
6. C=Cc1cccc(Cl)c1  -0.0083
7. CCOC(=O)c1ccccc1  -0.574
8. Cc1cccc([N+](=O)[O-])c1  -0.687
9. Cc1cccc(C)c1N  -0.886
10. CCCCCCCCC(=O)OCCCC  -1.67
11. Cc1ccc([N+](=O)[O-])c(O)c1  -1.7
12. Cc1ccc2cc(C)ccc2c1  -2.37
13. OCCNc1ccccc1  -2.66
14. COc1cc(Cl)c(Cl)c(Cl)c1O  -2.73
15. C/C(=C\c1ccccc1)C(=O)O  -3.04
16. CON(C)C(=O)Nc1ccc(Cl)cc1  -3.82
17. CCN(CC)C(=O)SCc1ccccc1Cl  -4.03
18. O=C1CCC(=O)N1  -4.12
19. c1cc(-c2ccncc2)ccn1  -4.25
20. CCCOCCN(C(=O)CCl)c1c(CC)cccc1CC  -6
21. CC(C)OC(=O)C(O)(c1ccc(Br)cc1)c1ccc(Br)cc1  -7.09
22. CC(C)C(C(=O)OC(C#N)c1cccc(Oc2ccccc2)c1)c1ccc(Cl)cc1 (centres undefined)  -8.82

In order of falling log10 Henry constant (atm·m³/mol):
1. CBr  -2.13
2. Cc1ccc([N+](=O)[O-])c(O)c1  -4.89
3. Cc1cccc([N+](=O)[O-])c1  -5.03
4. CC(=O)OO  -5.67
5. CCCOCCN(C(=O)CCl)c1c(CC)cccc1CC  -8.1

For Cc1cccc(C)c1N, the ready biodegradability was “not readily biodegradable”.
For NCC1CCCC(CN)C1 (centres undefined), the ready biodegradability was “not readily biodegradable”.
With CCCCCCCCC the ready biodegradability was “readily biodegradable”.
With CCC(C)(C)c1ccccc1 the ready biodegradability was “not readily biodegradable”.
With CCCCCCCCC=CCCCCCCCC(=O)OCC(O)C1OCC(O)C1O (centres undefined) the ready biodegradability was “readily biodegradable”.
For Cc1ncc(CO)c(C=O)c1O, the ready biodegradability was “readily biodegradable”.
In the case of CCCCCCCCCCCCOC(=O)CCSCCC(=O)OCCCCCCCCCCCC, the ready biodegradability was “readily biodegradable”.
With C=Cc1cccc(Cl)c1 the ready biodegradability was “not readily biodegradable”.
With CBr the ready biodegradability was “not readily biodegradable”.
With NNC(N)=S the ready biodegradability was “not readily biodegradable”.
For NCCc1ccc(Br)cc1, the ready biodegradability was “readily biodegradable”.
In the case of Cc1ccc([N+](=O)[O-])c(O)c1, the ready biodegradability was “not readily biodegradable”.
In the case of O=C(CC(=O)c1ccccc1)c1ccccc1, the ready biodegradability was “readily biodegradable”.
With CCCCCCCCc1ccccc1Nc1ccccc1CCCCCCCC the ready biodegradability was “not readily biodegradable”.
In the case of Cc1cccc([N+](=O)[O-])c1, the ready biodegradability was “not readily biodegradable”.
With OCCN1CN(CCO)CN(CCO)C1 the ready biodegradability was “readily biodegradable”.
With C1=CCC(c2ccccc2)CC1 (centres undefined) the ready biodegradability was “readily biodegradable”.
With CCCCC(CC)COP(=O)(O)CC(CC)CCCC (centres undefined) the ready biodegradability was “not readily biodegradable”.

CCCCCCCCC showed a log10 biodegradation half-life (days) of 0.954.

In order of rising log10 Koc (L/kg):
1. CBr  1.34
2. CON(C)C(=O)Nc1ccc(Cl)cc1  2.1
3. O=[N+]([O-])c1ccc(O)cc1C(F)(F)F  2.11
4. CCOC(=O)c1ccccc1  2.3
5. COc1cc(Cl)c(Cl)c(Cl)c1O  2.8
6. CC(C)C(C(=O)OC(C#N)c1cccc(Oc2ccccc2)c1)c1ccc(Cl)cc1 (centres undefined)  3.73

Same assay, conditions: fish

In order of falling log10 biotransformation half-life (days):
1. Clc1cccc(-c2c(Cl)cccc2Cl)c1Cl  2.18
2. CCCCCCCCC  0.97
3. CCCCCCC1CCCC(C)C1 (centres undefined)  0.97
4. CC(C)C(C(=O)OC(C#N)c1cccc(Oc2ccccc2)c1)c1ccc(Cl)cc1 (centres undefined)  0.69
5. Cc1cccc([N+](=O)[O-])c1  -0.79

In order of falling log10 BCF:
1. CC(C)C(C(=O)OC(C#N)c1cccc(Oc2ccccc2)c1)c1ccc(Cl)cc1 (centres undefined)  2.85
2. COc1cc(Cl)c(Cl)cc1Cl  2.81
3. COc1cc(Cl)c(Cl)c(Cl)c1O  1.97
4. CON(C)C(=O)Nc1ccc(Cl)cc1  1.15
5. Cc1cccc([N+](=O)[O-])c1  1.08
